Values of other authors as cited in US10919926B2, “Compound or salt thereof, natural killer T cell activator, and pharmaceutical composition” (KEIO UNIVERSITY, priority 2016, dated 2021).

Test system: RBL-CD1d cells and NKT hybridoma 2E10 cells
Settings: previously known

SMILES: CCCCCCCCCCCCCCCCCCCCCCCCCC(=O)N[C@@H](CO[C@H]1O[C@H](CO)[C@H](O)[C@H](O)[C@H]1O)[C@H](O)[C@H](O)CCCCCCCCCCCCCC [α-GalCer, α-galactosylceramide]
- cytokine-inducing capacity compared with β-GalCer and C19: higher than β-GalCer and C19
